According to ChEMBL document CHEMBL4041499, “Synthesis and evaluation of 7-substituted coumarin derivatives as multimodal monoamine oxidase-B and cholinesterase inhibitors for the treatment of Alzheimer's disease” (Eur J Med Chem, 2017):

Columns and labels:
[1] = molecular target: T1, Amine oxidase [flavin-containing] A (Homo sapiens, UniProt P21397); assay type: ADME
T1 sequence (P21397 whole entry): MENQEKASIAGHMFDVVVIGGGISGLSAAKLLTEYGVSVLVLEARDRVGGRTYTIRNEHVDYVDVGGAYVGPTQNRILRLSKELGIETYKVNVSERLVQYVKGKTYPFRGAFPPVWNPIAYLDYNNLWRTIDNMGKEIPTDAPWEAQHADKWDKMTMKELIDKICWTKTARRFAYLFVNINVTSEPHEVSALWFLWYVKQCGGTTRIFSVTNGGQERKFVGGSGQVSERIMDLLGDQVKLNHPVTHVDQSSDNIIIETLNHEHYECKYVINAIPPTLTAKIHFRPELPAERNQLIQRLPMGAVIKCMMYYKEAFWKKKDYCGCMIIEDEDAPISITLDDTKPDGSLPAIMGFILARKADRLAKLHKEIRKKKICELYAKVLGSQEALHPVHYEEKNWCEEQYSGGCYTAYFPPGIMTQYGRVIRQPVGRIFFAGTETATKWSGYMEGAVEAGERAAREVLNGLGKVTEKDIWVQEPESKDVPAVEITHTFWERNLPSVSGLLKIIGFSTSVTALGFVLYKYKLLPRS
Description: Inhibition of recombinant human MAO-A assessed as reduction in 4-hydroxyquinolone production using kynuramine as substrate after 20 mins by fluorescence assay

Acetylcholinesterase = Acetylcholinesterase (Electrophorus electricus, UniProt O42275)
Cholinesterase = Cholinesterase (Equus caballus, UniProt P81908)
Cholinesterase, sequence (P81908 whole entry): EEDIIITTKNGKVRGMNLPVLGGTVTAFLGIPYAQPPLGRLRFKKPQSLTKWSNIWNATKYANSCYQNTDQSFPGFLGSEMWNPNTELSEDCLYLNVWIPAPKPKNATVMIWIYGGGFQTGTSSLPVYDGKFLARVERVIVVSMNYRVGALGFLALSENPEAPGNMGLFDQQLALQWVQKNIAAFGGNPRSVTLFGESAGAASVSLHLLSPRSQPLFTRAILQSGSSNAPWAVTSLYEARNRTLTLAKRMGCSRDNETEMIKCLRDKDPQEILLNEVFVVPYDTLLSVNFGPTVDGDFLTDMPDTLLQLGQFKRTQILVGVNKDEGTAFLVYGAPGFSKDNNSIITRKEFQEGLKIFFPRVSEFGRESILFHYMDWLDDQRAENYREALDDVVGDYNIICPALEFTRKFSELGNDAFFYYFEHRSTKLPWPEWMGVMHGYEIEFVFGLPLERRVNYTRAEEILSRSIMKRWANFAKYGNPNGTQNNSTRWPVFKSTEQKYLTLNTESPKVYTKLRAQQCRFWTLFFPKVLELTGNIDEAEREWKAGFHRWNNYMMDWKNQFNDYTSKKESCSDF

Acetylcholinesterase, sequence (O42275 whole entry): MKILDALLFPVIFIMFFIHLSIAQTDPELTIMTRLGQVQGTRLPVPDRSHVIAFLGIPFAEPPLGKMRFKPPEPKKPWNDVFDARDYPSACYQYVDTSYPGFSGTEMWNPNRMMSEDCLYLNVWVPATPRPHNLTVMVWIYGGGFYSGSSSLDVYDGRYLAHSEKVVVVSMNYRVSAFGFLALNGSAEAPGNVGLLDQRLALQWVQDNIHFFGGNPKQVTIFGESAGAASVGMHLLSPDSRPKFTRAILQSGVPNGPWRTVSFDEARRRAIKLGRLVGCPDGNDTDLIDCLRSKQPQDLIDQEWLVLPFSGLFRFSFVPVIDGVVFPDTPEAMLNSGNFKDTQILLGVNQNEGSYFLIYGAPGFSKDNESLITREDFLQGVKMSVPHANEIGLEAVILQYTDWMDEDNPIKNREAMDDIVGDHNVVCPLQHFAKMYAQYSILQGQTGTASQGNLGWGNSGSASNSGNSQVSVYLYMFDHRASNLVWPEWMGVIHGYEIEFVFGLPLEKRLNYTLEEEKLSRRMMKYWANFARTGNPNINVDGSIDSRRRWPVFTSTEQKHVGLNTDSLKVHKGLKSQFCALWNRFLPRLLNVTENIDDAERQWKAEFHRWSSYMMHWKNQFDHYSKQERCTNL

| SMILES | IC50 [1] [µM] | IC50 (Acetylcholinesterase) [µM] | IC50 (Cholinesterase) [µM] |
| --- | --- | --- | --- |
| O=c1cc(C(F)(F)F)c2ccc(OCCN3CCC(Cc4ccccc4)CC3)cc2o1 | > 10 | > 100 | > 100 |
| Cc1c(Cl)c(=O)oc2cc(OCCN3CCC(Cc4ccccc4)CC3)ccc12 | > 10 | 31.3 | 1.27 |
| Cc1c(C#N)c(=O)oc2cc(OCc3ccccc3)ccc12 | 1.38 | > 100 | 21.8 |
| O=c1ccc2ccc(OCCN3CCN(Cc4ccc(Br)cc4)CC3)cc2o1 | > 10 | > 100 | 50.1 |
| O=c1cc(C(F)(F)F)c2ccc(OCCN3CCN(Cc4ccc(Br)cc4)CC3)cc2o1 | > 10 | > 100 | > 100 |
| O=c1ccc2ccc(OCCN3CCC(Cc4ccccc4)CC3)cc2o1 | > 10 | 36.7 | 20.3 |
| Cc1c(C#N)c(=O)oc2cc(OCCN3CCC(Cc4ccccc4)CC3)ccc12 | > 10 | 9.1 | 5.9 |
| Cc1c(C#N)c(=O)oc2cc(OCc3ccc(Br)cc3Br)ccc12 | 0.72 | > 100 | > 100 |
| Cc1cc(=O)oc2cc(OCCN3CCC(Cc4ccccc4)CC3)ccc12 | > 10 | 29.4 | 5.19 |
| Cc1c(Cl)c(=O)oc2cc(OCCN3CCN(Cc4ccc(Br)cc4)CC3)ccc12 | > 10 | > 100 | 3.12 |
| Cc1c(C#N)c(=O)oc2cc(OCc3ccc(Br)cc3)ccc12 | – | > 100 | > 100 |
| Cc1c(C#N)c(=O)oc2cc(OCCN3CCN(Cc4ccc(Br)cc4)CC3)ccc12 | > 10 | 38.5 | 13.3 |
| Cc1cc(=O)oc2cc(OCc3ccc(Br)cc3)ccc12 | 0.05 | > 100 | > 100 |
| Cc1c(C#N)c(=O)oc2cc(OCc3ccccc3Br)ccc12 | > 10 | > 100 | > 100 |
| Cc1c(C#N)c(=O)oc2cc(OCc3ccc(F)cc3)ccc12 | – | > 100 | > 100 |
| O=c1ccc2ccc(OCc3ccc(Br)cc3)cc2o1 | – | > 100 | > 100 |
| Cc1cc(=O)oc2cc(OCCN3CCN(Cc4ccc(Br)cc4)CC3)ccc12 | > 10 | 12.8 | 9.7 |
| Cc1c(Cl)c(=O)oc2cc(OCc3ccc(Br)cc3)ccc12 | – | > 100 | > 100 |
| O=c1ccc2ccc(OCCN3CCCCC3)cc2o1 | – | 54.9 | – |
| Cc1c(Cl)c(=O)oc2cc(OCc3ccccc3)ccc12 | 2.13 | > 100 | 0.96 |
| Cc1cc(=O)oc2cc(OCCN3CCCCC3)ccc12 | – | 66.4 | – |
| O=c1cc(C(F)(F)F)c2ccc(OCc3ccc(Br)cc3)cc2o1 | > 10 | > 100 | > 100 |
| Cc1c(C#N)c(=O)oc2cc(OCc3ccc(Cl)cc3)ccc12 | – | > 100 | > 100 |
